Laboratory results: US20150204881A1, “Biomarkers For Diagnosis Of Diabetes And Monitoring Of Anti-Diabetic Therapy” (Sumitomo Bakelite Co., Ltd., priority 2012, published 2015)

What was measured:
db/db mice [1] = assay: HbA1c in treated db/db mice; format: in vivo, mouse
db/db mice [2] = assay: Plasma N-glycan profiling (MALDI-TOF MS) in insulin detemir- vs vehicle-treated db/db mice; format: in vivo, mouse
Method: A 10 μl aliquot of each plasma sample was spiked with internal standard (700 pmol) and analyzed for N-linked glycans using Ezose Sciences' GLYCANMAP methodology. The samples were denatured and then digested with trypsin, followed by heat-inactivation. The mixture was then treated with PNGase F. After enzymatic release of N-glycans, aliquots were subjected to solid-phase processing using BLOTGLYCO beads. Following capture on the beads, the sialic acid residues were methyl esterified. The glycans were simultaneously released from the beads and labeled, and then aliquots of the recovered materials were spotted onto a MALDI target plate. Steps from initial aliquoting to spotting on the MALDI plate were performed using the fully automated SWEETBLOT technology. MALDI-TOF MS analysis was performed on an ultraflex III mass spectrometer (Bruker Daltonics) in the positive-ion, reflector mode. Each sample from the BLOTGLYCO bead processing step was spotted in quadruplicate, and spectra were obtained in an automated manner using the AutoXecute feature in flexControl software (Bruker Daltonics). Proposed glycan structures were assigned based on molecular weight. These methods have been described previously by Nishimura, Furukawa and Miura (Nishimura et al., Angew Chem. Int. Ed. Engl., 44: 91-96 (2004); Furukawa et al., Anal. Chem., 80: 1094-1101 (2008); Miura et al., Chem.-A Eur. J, 13: 4797-4804 (2007)). Alternatively, standard fluorescent HPLC or capillary electrophoresis methods with 2-AA, 2-AB, or APTS labeling can be used to monitor the glycan levels and changes in glycan patterns.
A further study was undertaken to evaluate the performance of candidate biomarkers discovered using rosiglitazone in mice treated with a diabetes drug having a different mechanism of action. The candidate biomarkers that were identified in Example 1 were evaluated in db/db mice treated with insulin detemir and vehicle.
Plasma samples were analyzed from ten db/db mice at baseline (0 days) and from 20 db/db mice (ten vehicle and ten insulin detemir-treated) at 7, 14, and 21 days. Sample preparation and analysis followed the protocol described in Example 1.
Concentrations of individual glycans in insulin detemir- and vehicle-treated db/db mice were compared at each time-point using the Student's t-test. N-glycans which yielded p-values <0.05 in this analysis were considered significant. Time-dependence was also evaluated for each of the candidate biomarkers by comparing each time-point to baseline.

[3] = db/db mice treated with insulin detemir vs vehicle
[4] = plasma, db/db mice vs vehicle, 7, 14, 21 days

| Compound | Time until HbA1c difference reached p<0.001 significance (db/db mice [1]; first rosiglitazone study, db/db mice vs vehicle) [days] | Changes in Glycan 540020 (db/db mice [2]; [3]) | Changes in O-acetylated N-glycans (db/db mice [2]; [3]) | Changes in fucosylated N-glycans (db/db mice [2]; [3]) | High mannose glycans (520000, 620000, 720000, 820000) with insulin detemir treatment (db/db mice [2]; db/db mice vs vehicle, significant at Day 7, 14 and 21, lower in magnitude than with rosiglitazone) | Hybrid glycans (430010, 530010, 630010) vs vehicle-treated controls (db/db mice [2]; db/db mice, as early as Day 7) | Direction of Change with Insulin Detemir: High Mannose glycan 520000 (db/db mice [2]; [4]) | Direction of Change with Insulin Detemir: High Mannose glycan 620000 (db/db mice [2]; [4]) | Direction of Change with Insulin Detemir: High Mannose glycan 720000 (db/db mice [2]; [4]) | Direction of Change with Insulin Detemir: High Mannose glycan 820000 (db/db mice [2]; [4]) | Direction of Change with Insulin Detemir: Hybrid glycan 430010 (db/db mice [2]; [4]) | Direction of Change with Insulin Detemir: Hybrid glycan 530010 (db/db mice [2]; [4]) | Direction of Change with Insulin Detemir: Hybrid glycan 630010 (db/db mice [2]; [4]) | Changes in HbA1c (db/db mice [1]; insulin-treated db/db mice, compared with rosiglitazone) |
| --- | --- | --- | --- | --- | --- | --- | --- | --- | --- | --- | --- | --- | --- | --- |
| CN(CCOc1ccc(CC2SC(=O)NC2=O)cc1)c1ccccn1 (centres unmarked) [Rosiglitazone] | 21 |  |  |  |  |  |  |  |  |  |  |  |  |  |
| insulin detemir |  | no significant changes | no significant changes | no significant changes | lower levels | significant decreases | Decreased | Decreased | Decreased | Decreased | Decreased | Decreased | Decreased | more subtle changes |
